Results as given in ChEMBL document CHEMBL1138959, “Novel class of cyclophosphamide prodrug: cyclophosphamide spiropiperaziniums (CPSP)” (Bioorg Med Chem Lett, 2006).

Experiments:
CCRF S-180 [1] = experiment: Antitumor activity against S180 cells implanted in mouse at 30 mg/kg, ip; format: functional; conditions: route intraperitoneal; for inhibition in vivo at 30 mg/kg: Mus musculus, CCRF S-180, ip
H22 [2] = experiment: Antitumor activity against H22 cells implanted in mouse at 30 mg/kg, ip; format: functional; conditions: route intraperitoneal; for inhibition in vivo at 30 mg/kg: Mus musculus, H22, ip
H22 [3] = experiment: Antitumor activity against H22 cells implanted in mouse at 15 mg/kg, ip; format: functional; conditions: route intraperitoneal
CCRF S-180 [4] = experiment: Antitumor activity against S180 cells implanted in mouse at 60 mg/kg, ip; format: functional; conditions: CCRF S-180, ip, route intraperitoneal
CCRF S-180 [5] = experiment: Antitumor activity against S180 cells implanted in mouse at 15 mg/kg, ip; format: functional; conditions: CCRF S-180, ip, route intraperitoneal
H22 [6] = experiment: Antitumor activity against H22 cells implanted in mouse at 60 mg/kg, ip; format: functional; conditions: route intraperitoneal
[7] = Toxicity in ip dosed mouse; format: organism-based; conditions: in vivo

| Structure (SMILES) | inhibition in vivo at 30 mg/kg (CCRF S-180 [1]) [%] | inhibition in vivo at 30 mg/kg (H22 [2]) [%] | other results |
| --- | --- | --- | --- |
| CC1C[N+]2(CCN(P3(=O)NCCCO3)CC2)CC(C)O1 (centres undefined) | 46.6 | 20.6 |  |
| O=P1(N2CC[N+]3(CCc4ccccc4C3)CC2)NCCCO1 (centres undefined) | 18.9 |  |  |
| CN1CC[N+]2(CC1)CCN(P1(=O)NCCCO1)CC2.[Cl-] (centres undefined) |  |  | inhibition in vivo at 15 mg/kg (H22 [3]): 24.4%; Inhibition (CCRF S-180 [1]): 42.31%; inhibition in vivo at 60 mg/kg (CCRF S-180 [4]): 55.2%; inhibition in vivo at 15 mg/kg (CCRF S-180 [5]): 37.5%; Inhibition (H22 [2]): 41.66%; inhibition in vivo at 60 mg/kg (H22 [6]): 38%; LD50 [7]: 1200 mg/kg |
| O=P1(N2CC[N+]3(CCCCCC3)CC2)NCCCO1.[Cl-] (centres undefined) | 36 | 48.4 | inhibition in vivo at 15 mg/kg (H22 [3]): 17.2%; inhibition in vivo at 60 mg/kg (CCRF S-180 [4]): 53.4%; inhibition in vivo at 15 mg/kg (CCRF S-180 [5]): 38.2%; inhibition in vivo at 60 mg/kg (H22 [6]): 51.3%; LD50 [7]: 239 mg/kg |
| CC1CC[N+]2(CC1)CCN(P1(=O)NCCCO1)CC2 (centres undefined) | -13.3 | 32.2 |  |
| O=P1(N2CC[N+]3(CCNCC3)CC2)NCCCO1 (centres undefined) | 10.7 | 8.64 |  |
| O=P1(N2CC[N+]3(CCOCC3)CC2)NCCCO1 (centres undefined) | -27.6 | 32.5 |  |
| C[N+]1(C)CCN(P2(=O)NCCCO2)CC1 (centres undefined) | 33.5 | 28.8 |  |
| O=P1(N2CC[N+]3(CCCCC3)CC2)NCCCO1 (centres undefined) | 39.9 | 12.8 |  |
| CN1CC[N+]2(CC1)CCN(P1(=O)NCCCO1)CC2.[Br-] (centres undefined) |  |  | Inhibition (CCRF S-180 [1]): 18.72%; Inhibition (H22 [2]): 11.6% |
| O=P1(N2CC[N+]3(CCCC3)CC2)NCCCO1 (centres undefined) | 26.7 | 17.3 |  |
| CN1CC[N+]2(CC1)CCN(P1(=O)NCCCO1)CC2.[I-] (centres undefined) |  |  | Inhibition (CCRF S-180 [1]): 29.41%; Inhibition (H22 [2]): 16.19% |
| O=P1(N2CC[N+]3(CCN(Cc4ccccc4)CC3)CC2)NCCCO1 (centres undefined) | 33.7 |  |  |
| O=P1(N(CCCl)CCCl)NCCCO1 (centres undefined) [CYCLOPHOSPHAMIDE ANHYDROUS] | 72.9 | 72 | LD50 [7]: 387 mg/kg |
| C[N+]1(Cc2ccccc2)CCN(P2(=O)NCCCO2)CC1 (centres undefined) | -3.28 | -6.63 |  |
